Measured values reported in the NIST ThermoML archive (doi:10.1021/je800348s).
Numbers after ± are expanded uncertainties.

Legend:
[1] = 101 kPa, Liquid; for mass density: Vibrating tube method
[2] = xn = mol fraction of the nth substance listed; details: 101 kPa, Liquid, x1 = 1; for mass density: Vibrating tube method

Compound	viscosity ([1]; 293.15 K) [mPa·s]	mass density ([1]; 293.15 K) [kg/m3]	viscosity ([1]; 298.15 K) [mPa·s]	mass density ([1]; 298.15 K) [kg/m3]	viscosity ([1]; 303.15 K) [mPa·s]	mass density ([1]; 303.15 K) [kg/m3]	viscosity ([1]; 313.15 K) [mPa·s]	mass density ([1]; 313.15 K) [kg/m3]	mass density ([2]; 293.15 K) [kg/m3]	viscosity ([2]; 293.15 K) [mPa·s]	mass density ([2]; 298.15 K) [kg/m3]	viscosity ([2]; 298.15 K) [mPa·s]	mass density ([2]; 303.15 K) [kg/m3]	viscosity ([2]; 303.15 K) [mPa·s]	mass density ([2]; 313.15 K) [kg/m3]	viscosity ([2]; 313.15 K) [mPa·s]
C1C[C@@H]2[C@H]3CC[C@H](C3)[C@@H]2C1 [exo-tetrahydrodicyclopentadiene]	3.064 ± 0.077	935.2 ± 8	2.74 ± 0.069	931.4 ± 8	2.514 ± 0.063	927.7 ± 8	2.27 ± 0.057	922.2 ± 8								
CCCCCCCC [octane] + C1C[C@@H]2[C@H]3CC[C@H](C3)[C@@H]2C1									702.5 ± 8	0.5439 ± 0.015	698.5 ± 8	0.5177 ± 0.015	694.5 ± 8	0.4795 ± 0.014	686.3 ± 8	0.4358 ± 0.013
CCCCCCCCCC [decane] + C1C[C@@H]2[C@H]3CC[C@H](C3)[C@@H]2C1									730 ± 8	0.9491 ± 0.024	726.4 ± 8	0.8434 ± 0.022	722.5 ± 8	0.8172 ± 0.021	715.4 ± 8	0.7851 ± 0.02
CCCCCCCC [octane]	0.5439 ± 0.015	702.5 ± 8	0.5177 ± 0.015	698.5 ± 8	0.4795 ± 0.014	694.5 ± 8	0.4358 ± 0.013	686.3 ± 8								
CCCCCCCCCC [decane]	0.9491 ± 0.024	730 ± 8	0.8434 ± 0.022	726.4 ± 8	0.8172 ± 0.021	722.5 ± 8	0.7851 ± 0.02	715.4 ± 8								
